Reference: ChEMBL document CHEMBL4033708, “Synthesis and molecular docking study of some 5,6-dichloro-2-cyclopropyl-1H-benzimidazole derivatives bearing triazole, oxadiazole, and imine functionalities as potent inhibitors of urease” (Bioorg Med Chem Lett, 2017)

Target: Urease (Canavalia ensiformis, UniProt P07374)
Assay: Inhibition of jack bean urease using urea as substrate pretreated for 15 mins followed by substrate addition by phenol red based spectrophotometric method

Urease, sequence (P07374 whole entry): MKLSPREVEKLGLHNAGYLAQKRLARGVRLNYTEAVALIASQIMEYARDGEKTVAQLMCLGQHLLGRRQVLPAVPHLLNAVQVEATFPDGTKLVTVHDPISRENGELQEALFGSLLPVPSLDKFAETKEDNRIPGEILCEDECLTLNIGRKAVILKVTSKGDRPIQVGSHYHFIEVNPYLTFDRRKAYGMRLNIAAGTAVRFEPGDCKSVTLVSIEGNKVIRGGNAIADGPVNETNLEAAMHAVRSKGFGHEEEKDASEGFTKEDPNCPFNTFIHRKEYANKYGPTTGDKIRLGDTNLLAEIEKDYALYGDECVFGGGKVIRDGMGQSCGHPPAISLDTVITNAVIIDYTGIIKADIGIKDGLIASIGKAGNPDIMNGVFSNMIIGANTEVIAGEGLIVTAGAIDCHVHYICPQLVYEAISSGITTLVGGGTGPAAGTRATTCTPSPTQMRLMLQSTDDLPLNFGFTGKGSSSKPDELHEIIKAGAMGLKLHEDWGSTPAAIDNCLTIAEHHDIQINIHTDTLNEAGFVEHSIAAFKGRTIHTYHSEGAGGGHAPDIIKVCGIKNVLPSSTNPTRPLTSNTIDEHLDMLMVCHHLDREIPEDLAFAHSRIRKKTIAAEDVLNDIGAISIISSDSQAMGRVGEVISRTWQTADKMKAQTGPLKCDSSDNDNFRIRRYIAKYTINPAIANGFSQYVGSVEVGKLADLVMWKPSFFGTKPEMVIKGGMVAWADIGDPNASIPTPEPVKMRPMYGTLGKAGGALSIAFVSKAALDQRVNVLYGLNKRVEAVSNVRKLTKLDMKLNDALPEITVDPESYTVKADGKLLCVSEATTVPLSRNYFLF

| Compound | IC50 [µM] |
| --- | --- |
| NC(N)=S [THIOUREA] | 0.56 |
| NNC(=O)Cn1c(C2CC2)nc2cc(Cl)c(Cl)cc21 | 1.92 |
| CCn1c(S)nnc1Cn1c(C2CC2)nc2cc(Cl)c(Cl)cc21 | 0.38 |
| CCNC(=S)NNC(=O)Cn1c(C2CC2)nc2cc(Cl)c(Cl)cc21 | 0.28 |
| O=C(Cn1c(C2CC2)nc2cc(Cl)c(Cl)cc21)N/N=C/c1cc(Cl)ccc1O | 0.15 |
| Sc1nnc(Cn2c(C3CC3)nc3cc(Cl)c(Cl)cc32)o1 | 1.34 |
| O=C(Cn1c(C2CC2)nc2cc(Cl)c(Cl)cc21)N/N=C/c1ccc(F)c(Br)c1 | 0.06 |
| O=C(Cn1c(C2CC2)nc2cc(Cl)c(Cl)cc21)N/N=C/c1ccc(Cl)cc1 | 0.29 |
| O=C(Cn1c(C2CC2)nc2cc(Cl)c(Cl)cc21)N/N=C/c1ccccc1 | 2.07 |
| CN(C)c1ccc(/C=N/NC(=O)Cn2c(C3CC3)nc3cc(Cl)c(Cl)cc32)cc1 | 1.49 |
| CNC(=S)NNC(=O)Cn1c(C2CC2)nc2cc(Cl)c(Cl)cc21 | 0.05 to 0.06 |
| Cn1c(S)nnc1Cn1c(C2CC2)nc2cc(Cl)c(Cl)cc21 | 0.17 |
| O=C(Cn1c(C2CC2)nc2cc(Cl)c(Cl)cc21)N/N=C/c1ccccc1O | 0.22 |
| O=C(Cn1c(C2CC2)nc2cc(Cl)c(Cl)cc21)N/N=C/c1cc(Br)ccc1O | 0.14 |
| COC(=O)Cn1c(C2CC2)nc2cc(Cl)c(Cl)cc21 | 1.12 |
| Clc1cc2nc(C3CC3)[nH]c2cc1Cl | 0.17 |
